Results reported in patent EP4111863A1, “PHOSPHORUS USE EFFICIENCY ENHANCERS AS PLANT GROWTH PROMOTORS” (EuroChem Antwerpen, priority 2021, dated 2023).

Test system: SPX1
Experiment: Chemical activity assessment: SPX1 phosphate starvation biomarker, pSPX1::GUS reporter line, GUS stained area
Assay type: in vivo, Arabidopsis thaliana
Conditions: 50 µM compound, low phosphate modMS liquid medium, 7 days after germination, low phosphate control average of the same plate
Procedure: All Arabidopsis plant experiments were performed using the Arabidopsis thaliana Columbia-0 background. The Arabidopsis pSPX1::GUS line is described in the […] 2008, 54: 965-975. For rice, the cultivar Nipponbare was used. For maize, the cultivars DKC 2931 and B104 were used for regular pot experiments and sand-based pot experiments, respectively. For soybean, the cultivar Primus was used. […] The medium was solidified due to the addition of 0,6% Gelrite, unless stated otherwise. In case of vertical plates (root length and root hair measurements), the medium was supplied with 0.5% of sucrose and 1 µM (low phosphate, 1 µM KH2PO4, 9.9 mM KCI), 10 µM (low phosphate 10 µM KH2PO4, 9.9 mM KCI) or 1.25 mM KH2PO4 (high phosphate). Arabidopsis seeds were stratified for 2 days at 4 °C before germination. Seedlings were germinated in climate-controlled growth chambers at 22 °C under continuous light (100 µmol m^-2 s^-1). Husked rice seeds were germinated on wetted Whatman paper for 2 days at 37 °C and then transferred to Sterivent boxes or square Petri dishes with solid medium. Maize and soybean seeds were wetted 24 hours at room temperature prior to sowing in pots.
For the chemical activity assessment 3 to 8 seeds per well of Arabidopsis pSPX1::GUS line were sown in 96-well plates containing 150 µl of low phosphate modMS liquid medium containing 1% of sucrose. Compounds were added in 50 µM concentration, starting from a 5 mM stock of compounds solved in DMSO. Different chemical substances were separately added to different wells. Per plate, 16 control wells were used, 8 containing only the low phosphate medium and 1% DMSO, and 8 containing high phosphate medium and 1% DMSO. 7 days after germination, plates were scanned using a flatbed scanner (EPSON Expression 11000XL) and analyzed for leaf size. After scanning, the growth medium was replaced by GUS staining solution (see Plant Mol. Biol. Rep. 1994, 12: 37-42 for details) and incubated for 1.5 hours at 37 °C. The plates were scanned a second time and analyzed for GUS signal area. Measurements of both leaf area and GUS signal area were conducted by filtering out and measure the green and blue signal, respectively using ImageJ software. If the green leaf area was 50% or less than the control, samples were omitted. Additionally, all results were visually screened for leaf size and GUS signal.

Row | SMILES | GUS (SPX1) stained area normalized to the number of seeds (pixels) (Table 3) | GUS (SPX1) stained area normalized to the number of seeds (pixels) (Table 2)
1 | O=C(c1csc(-c2cccs2)n1)N1CCOC2CCCCC21 (stereo not shown) | 2 | 
2 | Cc1nnc(CN2CCOCC2c2cccn2C)o1 (stereo not shown) | 50 | 
3 | Cc1cc(C)c(C)c(OC(=O)N2CCOCC2)c1 | 17 | 
4 | CC1CN(C(C)c2nc(C3CC3)no2)CCO1 (stereo not shown) | 441 | 
5 | CC(C)(C)c1n[nH]c(C2CN(C(=O)c3ccc[nH]3)CCO2)n1 (stereo not shown) | 5 | 
6 | CC(c1nnc(-c2cccs2)o1)N1CCOC(c2nccs2)C1 (stereo not shown) | 453 | 
7 | CCc1nnsc1C(=O)NCc1ccccc1N1CCOCC1 | 13 | 
8 | CCCc1csc(NC(=O)N2CCOC3(CCC3)C2)n1 | 49 | 
9 | CC(C)Cn1c(SCC(=O)c2ccc(Br)s2)nnc1N1CCOCC1 | 9 | 
10 | Cn1c(Cl)cnc1CN1CCOC(c2ccc(Cl)cc2)C1 (stereo not shown) | 17 | 
11 | Cc1csc(C2CN(Cc3csc(C(C)(C)C)n3)CCO2)n1 (stereo not shown) | 1 | 
12 | CCN(CC)S(=O)(=O)c1ccc(N2CCOCC2)c(NC(=O)c2ccccc2OC)c1 | 7 | 
13 | O=C(Nc1ccc(F)c(C(F)(F)F)c1)N1CCOCC1 | 8 | 
14 | O=C(c1ccc(-c2cc(Cl)ccc2Cl)o1)N1CCOCC1 | 16 | 
15 | CC1(C)CN(Cc2ccc(-n3ccnc3)cc2)CCO1 | 16 | 
16 | Fc1cc(C2CNCCO2)c(Cl)cc1Cl (stereo not shown) | 27 | 
17 | N#Cc1c(F)cccc1Sc1nnc(N2CCOCC2)s1 | 35 | 
18 | CC1CN(S(=O)(=O)CCNc2nc(-c3ccncc3)nc3ccccc23)CC(C)O1 (stereo not shown) | 1 | 
19 | COCC(C)Nc1ccc(N2CCOC(C)(C)C2)cc1OC (stereo not shown) | 7 | 
20 | O=C(c1cc(-c2ccccc2)nc2c1cnn2Cc1cccc(F)c1)N1CCOCC1 | 14 | 
21 | C[C@@H](CO)NS(=O)(=O)c1ccc(S(=O)(=O)N2CCOCC2)cc1 | 1 | 
22 | Cc1c(C(=O)NCC2CN(CC(C)C)CCO2)cnn1C (stereo not shown) | 9 | 
23 | O=S(=O)(CCN1CCOC2CCCCC21)c1cc(Cl)ccc1Cl (stereo not shown) | 9 | 
24 | CCc1nnc(NC(=O)N2CCOCC2CC(C)C)s1 (stereo not shown) | 16 | 
25 | Cc1ccc2cccc(OC(=O)N3CCOCC3)c2n1 | 21 | 
26 | c1ccc2nc(N3CCOCC3)cnc2c1 | 43 | 

Row | SMILES | GUS (SPX1) stained area normalized to the number of seeds (pixels) (Table 3) | GUS (SPX1) stained area normalized to the number of seeds (pixels) (Table 2)
27 | CCC1COCCN1C(=O)Nc1nnc(C(F)(F)F)s1 (stereo not shown) | 21 | 
28 | O=C(COc1ccc(Cl)cc1)Nc1ccccc1C(=O)N1CCOCC1 | 20 | 
29 | O=C(COc1cccc(F)c1)Nc1sc2c(c1C(=O)N1CCOCC1)CCCC2 | 10 | 
30 | c1ccc(OCCNCCN2CCOCC2)cc1 | 23 | 
31 | CC(C)c1nc(C2COCCN2c2ccnc(-c3ccccc3)n2)no1 (stereo not shown) | 21 | 
32 | CCC1CN(C(=O)c2[nH]nc(C)c2Br)CCO1 (stereo not shown) | 0 | 
33 | CCc1cc(N2CC(C)OCC2c2ccccc2)nc(-c2ccccn2)n1 (stereo not shown) | 5 | 
34 | CSc1nnc(CN2CC(c3ccccc3)OCC2(C)C)s1 (stereo not shown) | 43 | 
35 | CC1CN(C(=O)c2nn(-c3ccccc3)c(=O)c3ccccc23)CC(C)O1 (stereo not shown) | 10 | 
36 | O=C(Nc1sc2c(c1C(=O)N1CCOCC1)CCCC2)C1CCCc2ccccc21 (stereo not shown) | 8 | 
37 | CC(=O)Nc1nc(CN2CC(C)OC(c3ccsc3)C2)cs1 (stereo not shown) | 20 | 
38 | CC(C)c1ncsc1C(=O)NCC1CN(C)CCO1 (stereo not shown) [Compound 4.4] |  | 106
39 | O=C1CCCCCN1CCCNC(=O)N1CCOC2(CCCCCC2)C1 | 40 | 
40 | CC1CN(C(=O)c2c(Cl)nc3ccccn23)C(C)CO1 (stereo not shown) | 4 | 
41 | COc1ccc(-c2nnc(SCC(=O)N3CCOCC3)o2)cc1OC | 32 | 
42 | O=C(Nc1cccc(NC(=O)N2CCOC3(CCC3)C2)c1)C1CC1 | 11 | 
43 | C1CCC(Sc2nnc(N3CCOCC3)s2)C1 | 35 | 
44 | O=C(Cc1c[nH]c2cc(Cl)ccc12)N1CCOCC1c1ncon1 (stereo not shown) | 22 | 
45 | FC(F)(F)Cn1ccnc1CN1CCOC2(CCCC2)C1 | 38 | 
46 | Cc1cnn(CC2CN(C(C)C(=O)Nc3cc(C)no3)CCO2)c1 (stereo not shown) | 7 | 
47 | O=C(CCc1ccccc1)Nc1c(C(=O)N2CCOCC2)oc2ccccc12 | 28 | 
48 | CC1CN(C(=O)c2csc(-c3ccsc3)n2)C(C)CO1 (stereo not shown) | 46 | 
49 | Cc1cc(C)n(CC2CN(CC(=O)N(C)c3nccs3)CCO2)n1 (stereo not shown) | 15 | 
50 | COC(=O)c1ccc(N2CCOC(c3ccc(C)o3)C2)nc1C (stereo not shown) | 24 | 
51 | CC1CN(Cn2nc(-c3cccs3)nc2S)C(C)CO1 (stereo not shown) | 9 | 
52 | CC(=O)Nc1ccc(Sc2cc(C(=O)N3CCOCC3)c3ccccc3n2)cc1 | 18 | 

Row | SMILES | GUS (SPX1) stained area normalized to the number of seeds (pixels) (Table 3) | GUS (SPX1) stained area normalized to the number of seeds (pixels) (Table 2)
53 | Cc1cccc(N2CCOC3(CCCC3)C2)n1 | 25 | 
54 | CCc1ccc(C(C)NCC2(N3CCOCC3)CCSC2)o1 (stereo not shown) | 151 | 
55 | CC1CN(C(C)(C)CNC(=O)C2CCCN2C2CCN(CC(F)(F)F)CC2)CC(C)O1 (stereo not shown) | 7 | 
56 | CC1CN(CC(=O)Nc2ccccc2C(=O)NC2CCCC2)CC(C)O1 (stereo not shown) | 21 | 
57 | Cc1csc(C2CN(Cc3ncc(C(C)(C)C)o3)CCO2)n1 (stereo not shown) | 5 | 
58 | O=C(Cn1c(NCCO)nc2ccccc21)N1CCOCC1 | 16 | 
59 | O=C1C(=O)N(C2CCCC2)C(=O)N1Cc1cccc(S(=O)(=O)N2CCOCC2)c1 | 9 | 
60 | CN1CCOC2CN(Cc3cc(O)ccc3Br)CC21 (stereo not shown) | 12 | 
61 | O=C(Nc1ccc(F)cn1)N1CCOC(c2nccs2)C1 (stereo not shown) | 24 | 
62 | CC(Nc1cnn(CCN2CCOCC2)c1)c1nccs1 (stereo not shown) | 25 | 
63 | FC(F)(F)c1ccnc(N2CCOC(c3nccs3)C2)n1 (stereo not shown) | 0 | 
64 | CCc1nsc(N2CCOC(C)C2)n1 (stereo not shown) | 44 | 
65 | O=C(C1CN(C(=O)C(c2ccccc2)c2ccccc2)c2ccccc2O1)N1CCOCC1 (stereo not shown) | 30 | 
66 | Cc1cc(C)n(CC2CN(c3ncnc4ccsc34)CCO2)n1 (stereo not shown) | 44 | 
67 | CC(C)CC1COCCN1C(=O)Nc1nnc(C(F)(F)F)s1 (stereo not shown) | 7 | 
68 | Cc1nc2c(c(C)nn2C)c(C)c1CCC(=O)N1CC(C)OC(C)C1 (stereo not shown) | 27 | 
69 | CN1CCOC(C(=O)NC(c2c(F)cccc2F)C(F)(F)F)C1 (stereo not shown) | 5 | 
70 | NC(=O)C1COCCN1c1cnc2cc(Cl)c(Cl)cc2n1 (stereo not shown) | 3 | 
71 | Cc1cnc(CN2CCOCC23CCCC3)o1 | 46 | 
72 | CC1CN(S(=O)(=O)N(CC2CCOC2)C2CC2)CC(C)O1 (stereo not shown) | 60 | 
73 | CC1CN(c2ccc([N+](=O)[O-])nc2)CC(c2ccsc2)O1 (stereo not shown) | 55 | 
74 | COc1ccc(OC)c2c1CN(c1nc(CN3CCOCC3)nc3sc(C)c(C)c13)CC2O (stereo not shown) | 42 | 
75 | CCCn1nc(C(=O)N2CC(C)OCC2C)ccc1=O (stereo not shown) | 2 | 
76 | O=C1Nc2ccccc2SC1Nc1ccc(F)c(S(=O)(=O)N2CCOCC2)c1 (stereo not shown) | 3 | 
